Experimental data published in PubChem BioAssay (NCI).
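In this assay, cells in 96-well plates receive the compound at five concentrations for 48 hours. Endpoints are linearly interpolated between the surrounding concentrations. TGI: total growth inhibition.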

Experiments:
Assay in all cases: inhibition of tumour cell growth, NCI panel, 48 h
A498 renal = test system: A498 renal
ACHN renal = test system: ACHN renal
BT-549 breast = test system: BT-549 breast
CAKI-1 renal = test system: CAKI-1 renal
COLO 205 colon = test system: COLO 205 colon
EKVX NSCLC = test system: EKVX NSCLC
HCC-2998 colon = test system: HCC-2998 colon
HOP-62 NSCLC = test system: HOP-62 NSCLC
MDA-MB-231 breast = test system: MDA-MB-231 breast
MDA-N = test system: MDA-N
NCI-H460 lung = test system: NCI-H460 lung
OVCAR-4 ovarian = test system: OVCAR-4 ovarian
SK-MEL-5 melanoma = test system: SK-MEL-5 melanoma
SNB-75 CNS = test system: SNB-75 CNS
T-47D breast = test system: T-47D breast
TK-10 renal = test system: TK-10 renal
U251 CNS = test system: U251 CNS
UO-31 renal = test system: UO-31 renal
HL-60(TB) leukemia = test system: HL-60(TB) leukemia
SR leukemia = test system: SR leukemia

Structure (SMILES) | TGI (A498 renal) [µM] | TGI (ACHN renal) [µM] | TGI (BT-549 breast) [µM] | TGI (CAKI-1 renal) [µM] | TGI (COLO 205 colon) [µM] | TGI (EKVX NSCLC) [µM] | TGI (HCC-2998 colon) [µM] | TGI (HOP-62 NSCLC) [µM] | TGI (MDA-MB-231 breast) [µM] | TGI (MDA-N) [µM] | TGI (NCI-H460 lung) [µM] | TGI (OVCAR-4 ovarian) [µM] | TGI (SK-MEL-5 melanoma) [µM] | TGI (SNB-75 CNS) [µM] | TGI (T-47D breast) [µM] | TGI (TK-10 renal) [µM] | TGI (U251 CNS) [µM] | TGI (UO-31 renal) [µM] | TGI (HL-60(TB) leukemia) [µM] | TGI (SR leukemia) [µM]
COc1cc(N=NN(C)C)c(C(C)c2c3cc(OC)c(OC)cc3cc[n+]2C)cc1OC (configuration not stated) | > 100 | > 100 | > 100 | > 100 | 34.4 | > 100 | > 100 | > 100 | 77 | > 100 | > 100 | > 100 | 56.8 | > 100 | 76.2 | 97.5 | > 100 | > 100 | – | –
CCSC1=N/C(=C\c2ccccc2O)C(Nc2ccc(C)cc2)=N1 | > 100 | > 100 | > 100 | > 100 | > 100 | > 100 | – | > 100 | > 100 | – | > 100 | – | > 100 | > 100 | > 100 | > 100 | > 100 | > 100 | > 100 | –
CC[C@@]1(O)C(=O)OCc2c1cc1n(c2=O)Cc2c-1nc1ccccc1c2CC[Si](C)(C)C | 0.315 | – | > 100 | 0.207 | 14.2 | > 100 | 0.713 | 0.458 | > 53.9 | > 100 | < 0.0335 | – | < 0.0425 | – | > 27.7 | – | 0.103 | 0.056 | > 100 | –
CCOP(=O)(/C=C\n1cnc2c(=O)n(C(C)=O)c(N)nc21)OCC | > 100 | > 100 | > 100 | > 100 | > 100 | > 100 | – | > 100 | > 100 | > 100 | > 100 | > 100 | > 100 | > 100 | > 100 | > 100 | > 100 | – | > 100 | –
CC(C)OP(=O)(CN(C)/C(F)=N\C(F)(F)F)OC(C)C | > 100 | > 100 | > 100 | > 100 | > 100 | > 100 | > 100 | > 100 | > 100 | > 100 | > 100 | – | > 100 | > 100 | > 100 | > 100 | > 100 | > 100 | > 100 | –
CC(=O)c1ccc(Oc2ccc(/C(C)=N\N=C(N)N)cc2)cc1 | 7.53 | 17.4 | – | – | 3.26 | 16.7 | 20.8 | 9.72 | – | – | 10.5 | 23 | 6.98 | 5.15 | – | 12.8 | 10 | – | – | –
CC(=O)OC1CC2CCC1(C)C2(C)C (configuration not stated) | > 100 | > 100 | – | – | > 100 | – | > 100 | > 100 | > 100 | > 100 | > 100 | > 100 | – | > 100 | > 100 | > 100 | > 100 | > 100 | > 100 | –
CCP(=O)(CC)C(Cl)(Cl)C(O)C(C)(C)C (configuration not stated) | > 100 | > 100 | – | > 100 | > 100 | – | > 100 | > 100 | > 100 | > 100 | > 100 | > 100 | > 100 | > 100 | > 100 | > 100 | > 100 | > 100 | – | > 100
Cc1ccc(C(=O)C(C)N)cc1 (configuration not stated) | > 100 | > 100 | – | > 100 | > 100 | > 100 | > 100 | > 100 | – | – | > 100 | > 100 | > 100 | > 100 | – | > 100 | > 100 | > 100 | > 100 | > 100
COc1cc(/C=C/C(C)=O)ccc1OP(=O)(O)O | > 100 | > 100 | > 100 | > 100 | > 100 | > 100 | > 100 | > 100 | > 100 | > 100 | > 100 | > 100 | > 100 | > 100 | – | > 100 | > 100 | > 100 | – | –
O=C1c2ccccc2-c2nc(-c3cccnc3)cc3c2c1nc1ccccc13 | – | > 100 | > 100 | > 100 | > 100 | > 100 | > 100 | > 100 | > 100 | – | > 100 | > 100 | – | > 100 | – | > 100 | > 100 | > 100 | > 100 | > 100
Cc1csc2nc(-c3ccc([N+](=O)[O-])cc3)c(/C=N/N=C(N)N)n12 | 3.46 | 2.71 | 0.211 | 12.6 | 2.96 | 2.73 | 1.59 | 3.28 | 3.52 | 3.51 | 3.43 | 3.04 | 3.96 | 2.97 | > 100 | 3.9 | 3.24 | 2.88 | 4.49 | –
CN(C)CCNc1ccc([N+](=O)[O-])c2nc3ccccc3c(N)c12 | – | 3.51 | – | > 10 | 1.84 | 5.4 | – | > 10 | 6.89 | 2.09 | 1.66 | 3.58 | 2.79 | 3.96 | 3.7 | > 10 | > 10 | 4.27 | 6.86 | 1.73
C=C1c2c(cc3c(c2O)c(=O)c2ccccc2n3C)OC1(C)C | > 100 | > 100 | – | > 100 | > 100 | > 100 | – | – | – | – | > 100 | – | > 100 | 42 | – | > 100 | > 100 | > 100 | > 100 | –
CC1CCCC2=C1C(c1ccc(Cl)cc1)n1c(s/c(=C\c3ccc(Cl)cc3)c1=O)=N2 (configuration not stated) | > 100 | > 100 | > 100 | > 100 | > 100 | > 100 | – | > 100 | > 100 | > 100 | – | – | > 100 | > 100 | > 100 | > 100 | > 100 | > 100 | – | –
C=C(C=O)c1c2c(nc3ccccc13)C(=O)c1ccccc1C2=O | 3.76 | 1.7 | 3.57 | 0.795 | – | 3.61 | > 100 | 2.48 | 3.27 | – | – | – | 0.339 | 2.18 | 3.29 | 2.32 | > 100 | > 29 | 15.9 | –
CC1C(c2ccc3c(c2)OCO3)c2cc3c(cc2OC1N1CCCC1)OCO3 (configuration not stated) | – | > 100 | – | 38.6 | > 100 | > 100 | 49.1 | > 100 | – | 52.3 | > 100 | – | 47.2 | 61.7 | > 100 | > 100 | – | 73 | – | 89.8
Cc1c(-c2cc3n(n2)C(c2cccs2)C(C#N)=C(c2ccccc2)N3)c(=O)n(-c2ccccc2)n1C (configuration not stated) | > 100 | – | – | 84.2 | > 100 | > 100 | > 100 | > 100 | – | – | > 100 | > 100 | > 85.8 | > 100 | – | – | > 90.8 | > 100 | > 100 | –
CC(=O)[O-].CC(=O)[O-].O=C(N/N=C/c1cc(Cl)cc(Cl)c1[OH2+])c1ccncc1.[Co+2] | > 100 | > 100 | – | – | > 100 | > 100 | > 100 | > 100 | – | – | > 100 | – | > 100 | > 100 | – | > 100 | – | > 100 | > 100 | > 100
O=C(NO)c1coc2ccccc2c1=O | > 100 | > 100 | – | 68.5 | > 100 | > 100 | > 100 | – | – | – | – | > 100 | > 100 | > 100 | – | > 100 | > 100 | > 100 | > 100 | –
COc1ccc(Cc2nc3cc(C(F)(F)F)ccc3n2CCCN(C)C)cc1 | 35.6 | 79.9 | 43.4 | 56 | 34.3 | 65.4 | 13.1 | > 100 | 64.6 | – | 46.7 | 80.4 | 30.1 | – | 32.3 | 50.2 | 31.9 | 1.04 | 27.1 | –
CC(C)(C)[Si](C)(C)OCCCC#CCO | > 100 | > 100 | – | > 100 | > 100 | > 100 | > 100 | – | – | – | > 100 | > 100 | > 100 | > 100 | – | > 100 | > 100 | > 100 | 70.9 | –
O=P(O)(O)C(O)/C=C/c1ccccc1 (configuration not stated) | > 100 | > 100 | > 100 | > 100 | > 100 | > 100 | > 100 | > 100 | > 100 | > 100 | > 100 | > 100 | > 100 | > 100 | > 100 | > 100 | > 100 | > 100 | > 100 | –
NC(=O)CCC(NCc1c2ccccc2[n+]([O-])c2ccccc12)C(=O)O (configuration not stated) | > 100 | > 100 | – | > 100 | > 100 | > 100 | > 100 | > 100 | – | – | > 100 | > 100 | > 100 | > 100 | – | > 100 | > 100 | > 100 | 74.1 | –
Nc1nc(Cl)cc(NCC2(CO)CCC(Cc3ccccc3)C2)n1 (configuration not stated) | > 65.8 | > 100 | 78.7 | 95.6 | 28.6 | > 100 | > 100 | > 100 | > 100 | > 91.5 | > 100 | > 100 | 15.6 | > 89.9 | > 70.3 | > 77 | > 100 | > 92.6 | 26.1 | –
O=C1CCCc2c1c1c(n2Cc2ccccc2)-c2ccccc2C1=O | – | 30.9 | 55.7 | 46.2 | 42.8 | 91.3 | 30.3 | 50.2 | 42.9 | – | > 100 | 36.5 | 40.7 | > 100 | 33.3 | 31.4 | 43.9 | > 100 | 58.7 | –
CC(=O)C1=C(N=[N+]=[N-])c2cccc3cccc(c23)C1=O | 71 | 32.4 | 46.2 | 30.7 | 31.7 | 46.3 | 32 | 29.7 | 32 | 42.7 | 56.3 | 49.1 | 38.1 | 66.9 | 41.2 | 36.1 | 66 | 29.7 | – | –
CCOc1ccccc1/C=C1\NC(=O)N(/C=C2\C(=O)Oc3ccccc3C2=O)C1=O | – | > 100 | > 100 | > 100 | > 100 | > 100 | > 100 | > 100 | > 100 | > 100 | > 100 | > 100 | 57.9 | > 100 | – | 74.7 | > 100 | 75 | 74.4 | –
Cc1cc2[nH]c3c(C#N)c(-c4ccccc4)c(N=Nc4cccc(C(F)(F)F)c4)c(=O)n3c2cc1C | > 100 | > 100 | > 100 | > 100 | > 100 | > 100 | > 100 | > 100 | > 100 | > 100 | > 100 | > 100 | 51.8 | > 100 | > 100 | > 100 | > 100 | > 100 | – | –
